Measurements reported in patent publication US9315491B2 (DEVELOPMENT CENTER FOR BIOTECHNOLOGY, priority 2009, dated 2016).

Biological target: PI3K (p110α/p85α) (Homo sapiens (Human), UniProt P42336)
Test: PI3K HTRF enzyme assay, p110α/p85α
Assay type: biochemical
Settings: read-out: % inhibition @ 500 nM p110α; compound at 500 nM, 10 μM ATP
Procedure: Recombinant PI3K (p110α/p85α) and PI3K (p110β/p85α) were from Millipore. […] Briefly, the compounds of interest dissolved in 100% DMSO were dispensed in all wells, following which the mixture of PIP2 and enzyme was added. PI3K (p110α/p85α) and PI3K (p110β/p85α) enzyme reactions were initiated in the presence of 10 μM and 100 μM ATP, respectively, and incubated for 30 min at room temperature. STOP solution prepared 2 hours prior to use was added to stop reactions, and mixed well. Detection solution prepared 2 hours prior to use was added, and incubated at room temperature for 17 hours in the dark. […] HTRF ration was calculated as follows: […]

Chain of PI3K (p110α/p85α) (P42336 whole entry, species assumed): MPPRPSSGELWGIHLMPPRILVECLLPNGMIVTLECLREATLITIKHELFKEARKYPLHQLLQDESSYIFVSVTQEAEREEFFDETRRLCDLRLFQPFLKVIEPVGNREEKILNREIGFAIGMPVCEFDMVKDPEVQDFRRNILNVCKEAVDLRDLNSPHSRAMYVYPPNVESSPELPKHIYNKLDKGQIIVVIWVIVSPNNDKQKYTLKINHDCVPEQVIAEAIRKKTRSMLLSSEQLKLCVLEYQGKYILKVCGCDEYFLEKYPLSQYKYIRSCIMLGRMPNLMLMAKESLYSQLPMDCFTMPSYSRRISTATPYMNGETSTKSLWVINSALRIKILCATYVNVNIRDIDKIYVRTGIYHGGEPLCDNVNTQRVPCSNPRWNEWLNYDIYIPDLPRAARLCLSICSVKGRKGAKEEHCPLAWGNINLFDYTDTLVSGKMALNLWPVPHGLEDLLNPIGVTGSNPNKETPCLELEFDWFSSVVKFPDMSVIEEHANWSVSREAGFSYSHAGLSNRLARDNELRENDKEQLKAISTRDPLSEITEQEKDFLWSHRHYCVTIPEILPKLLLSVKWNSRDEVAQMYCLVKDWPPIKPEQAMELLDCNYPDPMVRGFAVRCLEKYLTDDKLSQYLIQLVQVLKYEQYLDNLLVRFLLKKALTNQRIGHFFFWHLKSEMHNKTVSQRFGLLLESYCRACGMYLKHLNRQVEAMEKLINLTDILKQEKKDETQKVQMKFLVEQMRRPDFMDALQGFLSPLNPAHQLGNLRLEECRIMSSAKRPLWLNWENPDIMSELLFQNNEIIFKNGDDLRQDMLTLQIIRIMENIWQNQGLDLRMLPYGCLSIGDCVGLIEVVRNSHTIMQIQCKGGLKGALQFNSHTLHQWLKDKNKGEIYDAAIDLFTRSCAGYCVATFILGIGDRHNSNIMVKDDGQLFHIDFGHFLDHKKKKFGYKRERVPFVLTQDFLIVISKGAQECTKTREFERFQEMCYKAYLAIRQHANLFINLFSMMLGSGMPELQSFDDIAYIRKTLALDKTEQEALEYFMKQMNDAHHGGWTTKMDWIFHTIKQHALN
Chain of PI3K (p110α/p85α) (P27986 whole entry partner, species assumed): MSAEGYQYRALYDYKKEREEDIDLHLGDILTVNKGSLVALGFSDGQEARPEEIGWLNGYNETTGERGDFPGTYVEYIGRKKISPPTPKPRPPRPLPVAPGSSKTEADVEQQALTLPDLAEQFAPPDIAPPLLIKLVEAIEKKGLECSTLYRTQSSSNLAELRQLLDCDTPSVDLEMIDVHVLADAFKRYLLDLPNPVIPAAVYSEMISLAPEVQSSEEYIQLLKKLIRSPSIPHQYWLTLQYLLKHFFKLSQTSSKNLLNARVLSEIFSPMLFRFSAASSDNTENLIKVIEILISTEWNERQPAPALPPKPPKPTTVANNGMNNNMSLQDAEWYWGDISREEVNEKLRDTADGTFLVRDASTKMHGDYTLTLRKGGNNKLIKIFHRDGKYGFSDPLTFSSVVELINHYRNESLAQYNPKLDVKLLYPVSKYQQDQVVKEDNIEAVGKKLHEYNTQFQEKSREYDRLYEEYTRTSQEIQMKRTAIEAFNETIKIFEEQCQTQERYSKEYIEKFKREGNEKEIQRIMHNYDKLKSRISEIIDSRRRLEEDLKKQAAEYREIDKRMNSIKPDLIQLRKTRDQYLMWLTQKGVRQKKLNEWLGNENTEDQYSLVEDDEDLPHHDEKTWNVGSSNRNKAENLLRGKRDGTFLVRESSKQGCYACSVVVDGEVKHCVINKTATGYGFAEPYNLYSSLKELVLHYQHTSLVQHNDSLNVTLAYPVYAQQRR

SMILES	inhibition at 0.5 µM
CCOC(=O)c1nc(-c2ccc(NC(=O)Nc3ccc(C(N)=O)cc3)cc2)nc(N2CCOCC2)c1OCC [MTR-0244, 2-{4-[3-(4-Carbamoyl-phenyl)-ureido]-phenyl}-5-ethoxy-6-morpholin-4-yl-pyrimidine-4-carboxylic acid ethyl ester]	60%
CSc1cnc(-c2ccc(NC(=O)Nc3ccc(N4CCOCC4)cc3)cc2)nc1N1CCOCC1 [MTR-0248, 1-[4-(5-Methylsulfanyl-4-morpholin-4-yl-pyrimidin-2-yl)-phenyl]-3-(4-morpholin-4-yl-phenyl)-urea]	45.8%
CSc1c(Cl)nc(-c2ccc(NC(=O)Nc3ccc(C(=O)N4CCN(C)CC4)cc3)cc2)nc1N1CCOCC1 [MTR-0271, 1-[4-(4-Chloro-5-methylsulfanyl-6-morpholin-4-yl-pyrimidin-2-yl)-phenyl]-3-[4-(4-methyl-piperazine-1-carbonyl)-phenyl]-urea]	94.5%
CCOC(=O)c1nc(-c2ccc(NC(=O)Nc3ccc(S(N)(=O)=O)cc3)cc2)nc(N2CCOCC2)c1OCC [MTR-0273, 5-Ethoxy-6-morpholin-4-yl-2-{4-[3-(4-sulfamoyl-phenyl)-ureido]-phenyl}-pyrimidine-4-carboxylic acid ethyl ester]	50.2%
CCOC(=O)c1nc(-c2ccc(NC(=O)Nc3ccc(C(=O)N4CCN(C)CC4)cc3)cc2)nc(N2CCOCC2)c1OCC [MTR-0274, 5-Ethoxy-2-(4-{3-[4-(4-methyl-piperazine-1-carbonyl)-phenyl]-ureido}-phenyl)-6-morpholin-4-yl-pyrimidine-4-carboxylic acid ethyl ester]	59%
CCOC(=O)c1nc(-c2ccc(NC(=O)Nc3ccc(C(=O)NCCN(C)C)cc3)cc2)nc(N2CCOCC2)c1OCC [MTR-0277, 2-(4-{3-[4-(2-Dimethylamino-ethylcarbamoyl)-phenyl]-ureido}-phenyl)-5-ethoxy-6-morpholin-4-yl-pyrimidine-4-carboxylic acid ethyl ester]	61.9%
CCOC(=O)c1nc(-c2ccc(NC(=O)Nc3ccc(C(=O)N4CCOCC4)cc3)cc2)nc(N2CCOCC2)c1OCC [MTR-0278, 5-Ethoxy-2-(4-{3-[4-(morpholine-4-carbonyl)-phenyl]-ureido}-phenyl)-6-morpholin-4-yl-pyrimidine-4-carboxylic acid ethyl ester]	58.6%
CCOC(=O)c1nc(-c2ccc(NC(=O)Nc3ccc4oc(=O)[nH]c4c3)cc2)nc(N2CCOCC2)c1OCC [MTR-0299, 5-Ethoxy-6-morpholin-4-yl-2-{4-[3-(2-oxo-2,3-dihydro-benzooxazol-5-yl)-ureido]-phenyl}-pyrimidine-4-carboxylic acid ethyl ester]	44.3%
CSc1c(Cl)nc(-c2ccc(NC(=O)Nc3ccc(C(=O)N4CCOCC4)cc3)cc2)nc1N1CCOCC1 [MTR-0308, 1-[4-(4-Chloro-5-methylsulfanyl-6-morpholin-4-yl-pyrimidin-2-yl)-phenyl]-3-[4-(morpholine-4-carbonyl)-phenyl]-urea]	106%
CCOC(=O)c1nc(-c2ccc(NC(=O)Nc3ccc(N4CCOCC4=O)cc3)cc2F)nc(N2CCOCC2)c1OCC [MTR-0322, 5-Ethoxy-2-(2-fluoro-4-{3-[4-(3-oxo-morpholin-4-yl)-phenyl]-ureido}-phenyl)-6-morpholin-4-yl-pyrimidine-4-carboxylic acid ethyl ester]	44.2%
CCOc1cnc(-c2ccc(NC(=O)Nc3ccc(N4CCOCC4=O)cc3)cc2)nc1N1CCOCC1 [MTR-0325, 1-[4-(5-Ethoxy-4-morpholin-4-yl-pyrimidin-2-yl)-phenyl]-3-[4-(3-oxo-morpholin-4-yl)-phenyl]-urea]	91.5%
CSc1c(Cl)nc(-c2ccc(NC(=O)Nc3ccc(NS(C)(=O)=O)cc3)cc2)nc1N1CCOCC1 [MTR-0347, N-(4-{3-[4-(4-Chloro-5-methylsulfanyl-6-morpholin-4-yl-pyrimidin-2-yl)-phenyl]-ureido}-phenyl)-methanesulfonamide]	80.6%
CCOC(=O)c1nc(-c2ccc(NC(=O)Nc3ccc(NC(C)=O)cc3)cc2)nc(N2CCOCC2)c1OCC [MTR-0370, 2-{4-[3-(4-Acetylamino-phenyl)-ureido]-phenyl}-5-ethoxy-6-morpholin-4-yl-pyrimidine-4-carboxylic acid ethyl ester]	61.8%
CSc1c(Cl)nc(-c2ccc(NC(=O)Nc3ccc4oc(=O)[nH]c4c3)cc2)nc1N1CCOCC1 [MTR-0372, 1-[4-(4-Chloro-5-methylsulfanyl-6-morpholin-4-yl-pyrimidin-2-yl)-phenyl]-3-(2-oxo-2,3-dihydro-benzooxazol-5-yl)-urea]	95.5%
CSc1cnc(-c2ccc(NC(=O)Nc3ccc(NS(C)(=O)=O)cc3)cc2)nc1N1CCOCC1 [MTR-0376, N-(4-{3-[4-(5-Methylsulfanyl-4-morpholin-4-yl-pyrimidin-2-yl)-phenyl]-ureido}-phenyl)-methanesulfonamide]	79.4%
CSc1cnc(-c2ccc(NC(=O)Nc3ccc(N4CCOCC4=O)cc3)cc2F)nc1N1CCOCC1 [MTR-0378, 1-[3-Fluoro-4-(5-methylsulfanyl-4-morpholin-4-yl-pyrimidin-2-yl)-phenyl]-3-[4-(3-oxo-morpholin-4-yl)-phenyl]-urea]	84.5%
CSc1c(Cl)nc(-c2ccc(NC(=O)Nc3ccc(S(C)(=O)=O)cc3)cc2)nc1N1CCOCC1 [MTR-0387, 1-[4-(4-Chloro-5-methylsulfanyl-6-morpholin-4-yl-pyrimidin-2-yl)-phenyl]-3-(4-methanesulfonyl-phenyl)-urea]	83.1%

Now from value to compound:

inhibition at 0.5 µM	SMILES
95.5%	CSc1c(Cl)nc(-c2ccc(NC(=O)Nc3ccc(C(N)=O)cc3)cc2)nc1N1CCOCC1 [MTR-0257, 4-{3-[4-(4-Chloro-5-methylsulfanyl-6-morpholin-4-yl-pyrimidin-2-yl)-phenyl]-ureido}-benzamide]
58.4%	COc1cnc(-c2ccc(NC(=O)Nc3ccc(N4CCOCC4)cc3)cc2)nc1N1CCOCC1 [MTR-0261, 1-[4-(5-Methoxy-4-morpholin-4-yl-pyrimidin-2-yl)-phenyl]-3-(4-morpholin-4-yl-phenyl)-urea]
56.3%	COc1cnc(-c2ccc(NC(=O)Nc3ccc(N4CCSCC4)cc3)cc2)nc1N1CCOCC1 [MTR-0262, 1-[4-(5-Methoxy-4-morpholin-4-yl-pyrimidin-2-yl)-phenyl]-3-(4-thiomorpholin-4-yl-phenyl)-urea]
83.7%	CSc1cnc(-c2ccc(NC(=O)Nc3ccc(C(N)=O)cc3)cc2)nc1N1CCOCC1 [MTR-0267, 4-{3-[4-(5-Methylsulfanyl-4-morpholin-4-yl-pyrimidin-2-yl)-phenyl]-ureido}-benzamide]
76.8%	COc1cnc(-c2ccc(NC(=O)Nc3ccc(C(N)=O)cc3)cc2)nc1N1CCOCC1 [MTR-0282, 4-{3-[4-(5-Methoxy-4-morpholin-4-yl-pyrimidin-2-yl)-phenyl]-ureido}-benzamide]
72.9%	COc1cnc(-c2ccc(NC(=O)Nc3ccc(S(N)(=O)=O)cc3)cc2)nc1N1CCOCC1 [MTR-0283, 4-{3-[4-(5-Methoxy-4-morpholin-4-yl-pyrimidin-2-yl)-phenyl]-ureido}-benzenesulfonamide]
79.2%	CSc1cnc(-c2ccc(NC(=O)Nc3ccc(S(N)(=O)=O)cc3)cc2)nc1N1CCOCC1 [MTR-0288, 4-{3-[4-(5-Methylsulfanyl-4-morpholin-4-yl-pyrimidin-2-yl)-phenyl]-ureido}-benzenesulfonamide]
86.9%	COc1cnc(-c2ccc(NC(=O)Nc3cccc(C(N)=O)c3)cc2)nc1N1CCOCC1 [MTR-0313, 3-{3-[4-(5-Methoxy-4-morpholin-4-yl-pyrimidin-2-yl)-phenyl]-ureido}-benzamide]
55.9%	CSc1cnc(-c2ccc(NC(=O)Nc3ccc(C(=O)O)cc3)cc2)nc1N1CCOCC1 [MTR-0316, 4-{3-[4-(5-Methylsulfanyl-4-morpholin-4-yl-pyrimidin-2-yl)-phenyl]-ureido}-benzoic acid]
90.8%	CCOc1cnc(-c2ccc(NC(=O)Nc3ccc(C(N)=O)cc3)cc2)nc1N1CCOCC1 [MTR-0323, 4-{3-[4-(5-Ethoxy-4-morpholin-4-yl-pyrimidin-2-yl)-phenyl]-ureido}-benzamide]
90.7%	CCOc1cnc(-c2ccc(NC(=O)Nc3ccc(S(N)(=O)=O)cc3)cc2)nc1N1CCOCC1 [MTR-0326, 4-{3-[4-(5-Ethoxy-4-morpholin-4-yl-pyrimidin-2-yl)-phenyl]-ureido}-benzenesulfonamide]
52.3%	COc1cnc(-c2ccc(NC(=O)Nc3ccc(C(=O)O)cc3)cc2)nc1N1CCOCC1 [MTR-0351, 4-{3-[4-(5-Methoxy-4-morpholin-4-yl-pyrimidin-2-yl)-phenyl]-ureido}-benzoic acid]
101%	CCOc1cnc(-c2ccc(NC(=O)Nc3ccc(NC(C)=O)cc3)cc2)nc1N1CCOCC1 [MTR-0368, N-(4-{3-[4-(5-Ethoxy-4-morpholin-4-yl-pyrimidin-2-yl)-phenyl]-ureido}-phenyl)-acetamide]
101%	CSc1cnc(-c2ccc(NC(=O)Nc3ccc(NC(C)=O)cc3)cc2)nc1N1CCOCC1 [MTR-0380, N-(4-{3-[4-(5-Methylsulfanyl-4-morpholin-4-yl-pyrimidin-2-yl)-phenyl]-ureido}-phenyl)-acetamide]
95.9%	COc1cnc(-c2ccc(NC(=O)Nc3ccc(C(=O)N4CCOCC4)cc3)cc2)nc1N1CCOCC1 [MTR-0382, 1-[4-(5-Methoxy-4-morpholin-4-yl-pyrimidin-2-yl)-phenyl]-3-[4-(morpholine-4-carbonyl)-phenyl]urea]
64%	COc1cnc(-c2ccc(NC(=O)Nc3ccc(C(N)=O)cc3)c(F)c2)nc1N1CCOCC1 [MTR-0385, 4-{3-[2-Fluoro-4-(5-methoxy-4-morpholin-4-yl-pyrimidin-2-yl)-phenyl]-ureido}-benzamide]
